{
  "source": "paper PMC10313368",
  "about": "(The Journal of Clinical Investigation, 2023)",
  "key": {"[1]": {"system": "retinal ganglion cells (RGCs)", "experiment": "Retinal histology (H&E), RBPMS staining and quantitation of RGCs, ONL/INL thickness after intraocular injection", "assay_type": "in vivo, mouse"}, "[2]": {"system": "HIF-regulated angiogenic mediators", "experiment": "mRNA expression of HIF-regulated vasoactive mediators in OIR mouse retina (qPCR)", "assay_type": "in vivo", "description": "Reverse transcription and quantitative real-time PCR. Total RNA was isolated from cultured cells or retinas with PureLinkTM RNA Mini Kit (Invitrogen #12183025), and cDNA was prepared with MuLV Reverse Transcriptase (Applied Biosystems). Quantitative real-time PCR was performed with Power SYBR Green PCR Master Mix (Applied Biosystems) and MyiQ Real-Time PCR Detection System (Bio-Rad). Normalization was done using cyclophilin A for mouse tissue and human cell lines. Primers are listed in Supplemental Table 2. […]\nAnimal studies. Eight-week-old pathogen-free female C57BL/6 mice were obtained from The Jackson Laboratory (JAX). Timed pregnant C57BL/6 mice were obtained from Charles River Laboratories. Mice heterozygous for HIF-1α have been previously described (2). Mice heterozygous for HIF-2α (strain number: 003266; common name: EPAS1 KO) were purchased […]\nOIR mouse model. OIR experiments were performed as previously described (1, 3). Briefly, C57BL/6 mice were placed in 75% O2 on P7. On P12, the mice were returned to room air and were […]\n(or vehicle) by intravitreal injection. Mice with body weight less than 6 g at P17 were excluded […]\nfrom analysis. Data were collected from both males and females and the results were combined since there was no apparent difference between sexes. Representative images for selected time points from a minimum of three independent experiments are shown. Data from 3-8 pups were obtained at each time point. […]\nIntraperitoneal (IP) injections. […]\nintraperitoneally using an insulin syringe in OIR pups. […]\nthe peritoneal cavity of neonatal C57BL/6 mice and STZ mice at indicated times, and the retinal vasculature and lysates for WB and qPCR were assessed at P17.\nIntraocular injections. Intravitreal injections were performed with a PLI-100A Pico-liter Microinjector (Warner Instruments, Harvard Bioscience) using pulled-glass micropipettes. Each micropipette was calibrated to deliver a 1 μl volume on depression of a foot switch. The mice were anesthetized with a ketamine (100 mg/kg) and xylazine (5mg/kg) mixture, and under a dissecting microscope, the sharpened tip of the micropipette was passed through the sclera just posterior to the limbus into the vitreous cavity and the foot switch was depressed, which caused fluid to […]"}, "[3]": {"molecular_target": "T1, HIF-1α (Mus musculus, UniProt Q61221)", "T1 construct": "from tissue; host or cells: retina of C57BL/6 OIR pups", "T1 sequence (Q61221 whole entry)": "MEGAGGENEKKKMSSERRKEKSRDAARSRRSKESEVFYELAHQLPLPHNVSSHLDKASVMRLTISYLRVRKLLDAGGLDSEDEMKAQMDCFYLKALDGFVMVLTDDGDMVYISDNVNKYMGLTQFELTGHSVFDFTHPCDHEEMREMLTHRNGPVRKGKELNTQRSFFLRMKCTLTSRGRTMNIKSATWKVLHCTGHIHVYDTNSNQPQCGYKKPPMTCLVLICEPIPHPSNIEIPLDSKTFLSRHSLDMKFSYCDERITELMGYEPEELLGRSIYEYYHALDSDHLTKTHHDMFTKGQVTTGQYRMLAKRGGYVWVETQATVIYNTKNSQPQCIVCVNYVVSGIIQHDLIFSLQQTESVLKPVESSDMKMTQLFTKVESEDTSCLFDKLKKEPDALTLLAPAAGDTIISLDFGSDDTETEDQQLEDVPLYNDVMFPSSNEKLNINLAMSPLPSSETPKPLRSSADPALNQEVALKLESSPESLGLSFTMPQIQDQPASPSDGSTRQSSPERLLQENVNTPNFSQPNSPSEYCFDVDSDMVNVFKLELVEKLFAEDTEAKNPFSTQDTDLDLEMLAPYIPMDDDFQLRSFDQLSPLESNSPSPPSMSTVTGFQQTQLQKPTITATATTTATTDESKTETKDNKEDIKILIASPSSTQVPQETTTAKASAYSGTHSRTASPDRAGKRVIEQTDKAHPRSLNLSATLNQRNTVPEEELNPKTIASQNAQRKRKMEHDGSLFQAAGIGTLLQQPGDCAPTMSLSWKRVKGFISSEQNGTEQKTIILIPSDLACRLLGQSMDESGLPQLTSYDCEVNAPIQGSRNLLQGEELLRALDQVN", "experiment": "Western blot of HIF-1α protein accumulation in retina of OIR mice (P13)", "assay_type": "in vivo", "description": "Immunoblot assays. Cells, neurosensory retina, and D120 retinal organoid lysates were subjected to 4–15% gradient SDS/PAGE (Invitrogen). Immunoblot (Western blot or WB) assays were performed as previously described (1).\nReverse transcription and quantitative real-time PCR. Total RNA was isolated from cultured cells or retinas with PureLinkTM RNA Mini Kit (Invitrogen #12183025), and cDNA was prepared with MuLV Reverse Transcriptase (Applied Biosystems). Quantitative real-time PCR was performed with Power SYBR Green PCR Master Mix (Applied Biosystems) and MyiQ Real-Time PCR Detection System (Bio-Rad). Normalization was done using cyclophilin A for mouse tissue and human cell lines. Primers are listed in Supplemental Table 2.\nAngiogenesis array. […]\ncDNA was prepared with QuantiTect® Reverse Transcription Kit (Qiagen, Cat# 205311). […]\n4444554). […] The data were analyzed by using HPRT1 as endogenous […]\nHUVEC cells, Euclidean distance was used to quantify the difference in qPCR screening. The Euclidean distance was calculated using “dist” function from R’s default stat library that measures the distance between 2 vectors (i.e., total qPCR expression values in control and treatment). […]\nSTZ-induced diabetes mouse model. […] Blood glucose was measured on experimental day 28 after 16 hours fasting and mice with blood glucose level > 250 mg/dL were considered […]"}, "[4]": {"details": "OIR+32-134D i.p. 20mg/kg, Figure 10C, replicates, 20 mg/kg"}, "[5]": {"details": "OIR+32-134D i.p. 20mg/kg, Figure 10D, replicates, 20 mg/kg"}, "[6]": {"details": "S Figure 4B, OIR mice, 14ng I.V., replicates"}, "[7]": {"details": "S Figure 4B, OIR mice, 70ng I.V., replicates"}},
  "note": "“And” between values parts separate entries of the source, which are not always exact repeats. Equal values may be shown once.",
  "data": [
    {"smiles": "Brc1ccc2c(-c3csc(-c4c[nH]c5c(Br)cccc45)n3)c[nH]c2c1", "note": "[32-134D, 4-(6-bromo-1H-indol-3-yl)-2-(7-bromo-1H-indol-3-yl)thiazole]", "values": [
      {"measurement": "retinal histology including GCL", "setting": "[1]; 32-134D 210 or 350 ng intraocular, 35 days", "value": "normal histology"},
      {"measurement": "number of RGCs on retinal flat mounts (in words)", "setting": "[1]; 32-134D at the highest doses tested, 35 days", "value": "unaffected"},
      {"measurement": "ONL or INL thickness versus vehicle (in words)", "setting": "[1]; 32-134D single dose 350 ng, 5 weeks", "value": "failed to demonstrate any changes"},
      {"measurement": "therapeutic window following intraocular administration", "setting": "[1]; 32-134D, mice", "value": "wide therapeutic window"},
      {"measurement": "mRNA expression of key HIF-regulated vasoactive mediators in OIR mice (in words)", "setting": "[2]; 5 consecutive (P12–P16) i.p. injections 20 mg/kg 32-134D", "value": "marked reduction"},
      {"measurement": "Vegfa mRNA", "setting": "[2]; Figure 14B, OIR mice, 14ng I.V., individual replicates", "value": "2.554 and 2.472 and 2.429"},
      {"measurement": "Vegfa mRNA", "setting": "[2]; Figure 14B, OIR mice, 70ng I.V., individual replicates", "value": "1.453 and 1.941 and 2.696"},
      {"measurement": "other key HIF-regulated angiogenic genes including Kdr, Angptl4, Epo, Serpine1 (in words)", "setting": "[2]; OIR mice P17, single intraocular 32-134D (70 ng, Supplemental Figure 4) at P12", "value": "moderate reduction"},
      {"measurement": "Angptl4 mRNA", "setting": "[2]; [4]", "value": "1.959 and 1.886 and 1.828"},
      {"measurement": "Epo mRNA", "setting": "[2]; [4]", "value": "15.9268 and 13.6786 and 15.0565"},
      {"measurement": "Pdgfb mRNA", "setting": "[2]; [4]", "value": "7.756 and 6.2199 and 6.871"},
      {"measurement": "Vegfa mRNA", "setting": "[2]; [4]", "value": "4.717 and 4.578 and 4.299"},
      {"measurement": "Angpt2 mRNA", "setting": "[2]; [5]", "value": "1.455 and 1.394 and 1.541"},
      {"measurement": "Kdr mRNA", "setting": "[2]; [5]", "value": "1.28 and 1.296 and 1.315"},
      {"measurement": "Ptprb mRNA", "setting": "[2]; [5]", "value": "1.109 and 1.093 and 1.12"},
      {"measurement": "Serpine1 mRNA", "setting": "[2]; [5]", "value": "18.6807 and 17.1616 and 18.3924"},
      {"measurement": "Angptl4 mRNA", "setting": "[2]; [6]", "value": "1.665 and 1.591 and 1.559"},
      {"measurement": "Epo mRNA", "setting": "[2]; [6]", "value": "8.623 and 9.0589 and 6.546"},
      {"measurement": "Kdr mRNA", "setting": "[2]; [6]", "value": "1.18 and 1.183 and 1.04"},
      {"measurement": "Serpine1 mRNA", "setting": "[2]; [6]", "value": "4.654 and 4.995 and 4.51"},
      {"measurement": "Angptl4 mRNA", "setting": "[2]; [7]", "value": "1.678 and 1.5898 and 1.693"},
      {"measurement": "Epo mRNA", "setting": "[2]; [7]", "value": "5.752 and 6.783 and 6.508"},
      {"measurement": "Kdr mRNA", "setting": "[2]; [7]", "value": "1.345 and 1.2643 and 1.301"},
      {"measurement": "Serpine1 mRNA", "setting": "[2]; [7]", "value": "6.417 and 6.411 and 5.108"},
      {"measurement": "Vegfa mRNA expression in OIR mice (in words)", "setting": "[2]; single intraocular injection 32-134D 14 ng at P12", "value": "moderate reduction"},
      {"measurement": "HIF-1α protein accumulation in OIR mice", "setting": "[3]; single i.p. injection 20 mg/kg, P13", "value": "reduction"},
      {"measurement": "accumulation of HIF-1α in OIR mice", "setting": "[3]; single intraocular injection 14 ng at P12, P13", "value": "effectively reduced"}
    ]}
  ]
}
